Common to all, as to type: in vivo
Test [1] concerns Lindernia pyxidaria. As to the kind of experiment: Test Example 12: herbicidal effect test by treatment during growing period in paddy field. The conditions noted are these: 120 g/10a; treatment seven days after sowing in flooded paddy pot; assessed 14 days after treatment. On the procedure: (§1) This test was performed with two replications per one formulation concentration plot, and 14 days after the formulation treatments, the weed suppression rate (%) was determined according to the following equation (Math. 2). Weed suppression rate (%)=(1−average dry weight (g) of plants in treated plots/average dry weight (g) of plants in untreated plots)×100 [Math. 2]
(§2) A Wagner pot having an area of 1/10000 are was filled with paddy field soil and after adding water, a chemical fertilizer (N:P:K=17:17:17) was mixed, followed by puddling. Thereafter, 30 grains of each of Echinochloa crus-galli, broad-leaved weed (Lindernia pyxidaria, Monochoria vaginalis) and Scirpus juncoides seeds were sown to a depth of 0 to 1 cm. Immediately after the sowing, the pot was flooded, and the depth of water was kept at about 3 cm. The pot was subsequently managed in a glass greenhouse. Seven Days after sowing, an emulsifiable concentrate prepared according to Formulation Example 15 by using the compound shown in Table 10 below was diluted with water, and a predetermined amount of the water-diluted formulation was added dropwise. The application rate of the active ingredient, by conversion, corresponded to 120 g per 10 are. The test was performed with two replications per one formulation concentration plot, and 14 days after the formulation treatments, the weed suppression rate (%) was determined according to the equation (Math. 2).

Test [2] has as its system Scirpus juncoides. The description is as above. The conditions noted are these: 120 g/10a; treatment seven days after sowing in flooded paddy pot; assessed 14 days after treatment. How it is done:
as §1, §2

In test [3] the test system is Monochoria vaginalis. The test is described as above. The conditions noted are these: 120 g/10a; treatment seven days after sowing in flooded paddy pot; assessed 14 days after treatment. On the procedure:
as §1, §2

In test [4] the test system is Echinochloa crus-galli. Described as above. The conditions noted are these: 120 g/10a; treatment seven days after sowing in flooded paddy pot; assessed 14 days after treatment. How it is done:
as §1, §2

In test [5] the test system is Lindernia pyxidaria. As to the kind of experiment: Test Example 11: herbicidal effect test by soil treatment in paddy field. Conditions: 120 g/10a active ingredient, 14 days after treatment.
Source text: as §2, with “greenhouse. Just” for “greenhouse. Seven Days”, “after that,” for “after sowing,”, “Table 9” for “Table 10”, “are.” for “are. The test was performed with two replications per one formulation concentration plot, and 14 days after the formulation treatments, the weed suppression rate (%) was determined according to the equation (Math. 2).”
as §1

In test [6] the test system is Scirpus juncoides. The description is as above. The conditions noted are these: 120 g/10a active ingredient, 14 days after treatment.
Source text: as §2, with “greenhouse. Just” for “greenhouse. Seven Days”, “after that,” for “after sowing,”, “Table 9” for “Table 10”, “are.” for “are. The test was performed with two replications per one formulation concentration plot, and 14 days after the formulation treatments, the weed suppression rate (%) was determined according to the equation (Math. 2).”
as §1

In test [7] the test system is Monochoria vaginalis. The description is as above. The conditions noted are these: 120 g/10a active ingredient, 14 days after treatment.
Source text: as §2, with “greenhouse. Just” for “greenhouse. Seven Days”, “after that,” for “after sowing,”, “Table 9” for “Table 10”, “are.” for “are. The test was performed with two replications per one formulation concentration plot, and 14 days after the formulation treatments, the weed suppression rate (%) was determined according to the equation (Math. 2).”
as §1

Test [8] has as its system Echinochloa crus-galli. The test is described as above. Conditions: 120 g/10a active ingredient, 14 days after treatment.
Source text: as §2, with “greenhouse. Just” for “greenhouse. Seven Days”, “after that,” for “after sowing,”, “Table 9” for “Table 10”, “are.” for “are. The test was performed with two replications per one formulation concentration plot, and 14 days after the formulation treatments, the weed suppression rate (%) was determined according to the equation (Math. 2).”
as §1

As to `CC(C)N(C(=O)n1cnn(S(=O)(=O)c2ccc(C(C)(C)C)cc2)c1=O)c1c(F)c(F)cc(F)c1F` [Compound 11-687], the “Weed suppression rate (%) Lindemia pyxidaria” value in test [1] is listed as 70%; in test [5] it was 100%. In addition, the “Weed suppression rate (%) Scirpus juncoides” value in test [2] was determined as 70%; in test [6], 90%. Further, the “Weed suppression rate (%) Monochoria vaginalis” value is recorded as 80% in test [3] and 100% in test [7]. The entries for the “Weed suppression rate (%) Echinochloa crus-galli” value in test [4] and in test [8] were 100% and 80%, respectively.

With `CC(C)N(C(=O)n1cnn(S(=O)(=O)c2cccc(F)c2)c1=O)c1ccccc1F` [Compound 11-428], the “Weed suppression rate (%) Lindemia pyxidaria” value in test [1] and in test [5] was 90% in each case. Besides, the “Weed suppression rate (%) Scirpus juncoides” value in test [2] and in test [6] was 90% throughout. Moreover, the “Weed suppression rate (%) Monochoria vaginalis” value in test [3] and in test [7] was 90% throughout. Further, the “Weed suppression rate (%) Echinochloa crus-galli” value in test [4] and in test [8] was 90% throughout.

With `Cc1ccc(N(C(=O)n2cnn(S(=O)(=O)c3cccs3)c2=O)C(C)C)c(F)c1` [Compound 11-1036], the “Weed suppression rate (%) Lindemia pyxidaria” value came out at 80% in test [1] and 90% in test [5]. In addition, the “Weed suppression rate (%) Scirpus juncoides” value in test [2] and in test [6] was 90% throughout. Further, the “Weed suppression rate (%) Monochoria vaginalis” value in test [3] is on record as 80%; in test [7], 90%. Besides, the “Weed suppression rate (%) Echinochloa crus-galli” value in test [4] and in test [8] was 90% throughout.

Turning to `Cc1ccc(N(C(=O)n2cnn(S(=O)(=O)c3ccccc3F)c2=O)C(C)C)c(F)c1` [Compound 11-416], the “Weed suppression rate (%) Lindemia pyxidaria” value in test [1] and in test [5] was 80% throughout. For the same compound, the “Weed suppression rate (%) Scirpus juncoides” value in test [2] and in test [6] was 90% throughout. For the same compound, the “Weed suppression rate (%) Monochoria vaginalis” value in test [3] and in test [7] was 80% each time. Besides, the “Weed suppression rate (%) Echinochloa crus-galli” value in test [4] and in test [8] was 90% each time.

Consider `CC(C)N(C(=O)n1cnn(S(=O)(=O)c2ccccc2F)c1=O)c1ccccc1F` [Compound 11-392], for which the “Weed suppression rate (%) Lindemia pyxidaria” value in test [1] and in test [5] was 80% each time. The “Weed suppression rate (%) Scirpus juncoides” value in test [2] and in test [6] was 90% throughout. Besides, the “Weed suppression rate (%) Monochoria vaginalis” value in test [3] and in test [7] was 80% throughout. The “Weed suppression rate (%) Echinochloa crus-galli” value in test [4] and in test [8] was 90% each time.

With `CN(C(=O)n1cnn(S(=O)(=O)C2CC2)c1=O)c1ccc(F)cc1F` [Compound 11-140], the “Weed suppression rate (%) Lindemia pyxidaria” value in test [1] and in test [5] was 70% in each case. Further, the entries for the “Weed suppression rate (%) Scirpus juncoides” value in test [2] and in test [6] were 100% and 80%, respectively. In addition, the “Weed suppression rate (%) Monochoria vaginalis” value in test [3] and in test [7] was 70% each time. Moreover, the “Weed suppression rate (%) Echinochloa crus-galli” value is listed as 100% in test [4] and 90% in test [8].

Consider `CC(C)N(C(=O)n1cnn(S(=O)(=O)c2cccc(F)c2)c1=O)c1c(F)cc(F)cc1F` [Compound 11-442], for which the “Weed suppression rate (%) Lindemia pyxidaria” value in test [1] and in test [5] was 80% in each case. The “Weed suppression rate (%) Scirpus juncoides” value in test [2] and in test [6] was 80% throughout. For the same compound, the “Weed suppression rate (%) Monochoria vaginalis” value in test [3] was 90%; in test [7] it was 70%. The “Weed suppression rate (%) Echinochloa crus-galli” value in test [4] and in test [8] was 100% in each case.

Take `CC(C)N(C(=O)n1cnn(S(=O)(=O)c2ccccc2F)c1=O)c1ccc(Br)cc1Cl` [Compound 11-413]: the “Weed suppression rate (%) Lindemia pyxidaria” value in test [1] is 70%; in test [5] it was 90%. The “Weed suppression rate (%) Scirpus juncoides” value in test [2] is recorded as 70%; in test [6] it was 80%. Also, the “Weed suppression rate (%) Monochoria vaginalis” value in test [3] is given as 70%; in test [7], 80%. Moreover, the “Weed suppression rate (%) Echinochloa crus-galli” value is on record as 60% in test [4] and 80% in test [8].

`Cc1ccc(N(C(=O)n2cnn(S(=O)(=O)c3c(F)c(F)c(F)c(F)c3F)c2=O)C(C)C)c(F)c1` [Compound 11-825]: the “Weed suppression rate (%) Lindemia pyxidaria” value in test [1] and in test [5] was 80% each time. Further, the “Weed suppression rate (%) Scirpus juncoides” value in test [2] and in test [6] was 90% throughout. Moreover, the “Weed suppression rate (%) Monochoria vaginalis” value in test [3] and in test [7] was 80% throughout. In addition, the “Weed suppression rate (%) Echinochloa crus-galli” value in test [4] and in test [8] was 90% in each case.

For `Cc1cc(C)c(S(=O)(=O)n2ncn(C(=O)N(c3cccc(F)c3)C(C)C)c2=O)c(C)c1` [Compound 11-854], the “Weed suppression rate (%) Lindemia pyxidaria” value in test [1] and in test [5] was 90% each time. Moreover, the entries for the “Weed suppression rate (%) Scirpus juncoides” value in test [2] and in test [6] were 80% and 90%, respectively. Moreover, the results for the “Weed suppression rate (%) Monochoria vaginalis” value in test [3] and in test [7] were 90% and 80%, respectively. Besides, the “Weed suppression rate (%) Echinochloa crus-galli” value in test [4] is recorded as 80%; in test [8] it was 100%.

As to `CC(C)N(C(=O)n1cnn(S(C)(=O)=O)c1=O)c1ccc(Cl)cc1F` [Compound 11-20], the “Weed suppression rate (%) Lindemia pyxidaria” value in test [1] and in test [5] was 40% each time. Moreover, the “Weed suppression rate (%) Scirpus juncoides” value in test [2] was determined as 60%; in test [6] it was 80%. The entries for the “Weed suppression rate (%) Monochoria vaginalis” value in test [3] and in test [7] were 60% and 40%, respectively. The “Weed suppression rate (%) Echinochloa crus-galli” value in test [4] and in test [8] was 70% each time.

On to `Cc1cc(C)c(S(=O)(=O)n2ncn(C(=O)N(C)c3ccc(F)cc3F)c2=O)c(C)c1` [Compound 11-1140], for which the “Weed suppression rate (%) Lindemia pyxidaria” value in test [1] is recorded as 80%; in test [5] it was 100%. The “Weed suppression rate (%) Scirpus juncoides” value in test [2] and in test [6] was 100% in each case. For the same compound, the “Weed suppression rate (%) Monochoria vaginalis” value in test [3] and in test [7] was 90% throughout. In addition, the “Weed suppression rate (%) Echinochloa crus-galli” value in test [4] and in test [8] was 100% in each case.

`Cc1nn(S(=O)(=O)C2CC2)c(=O)n1C(=O)N(c1ccc(F)cc1F)C(C)C` [Compound 11-246]: the “Weed suppression rate (%) Lindemia pyxidaria” value in test [1] and in test [5] was 80% throughout. For the same compound, the “Weed suppression rate (%) Scirpus juncoides” value in test [2] and in test [6] was 90% each time. Moreover, the “Weed suppression rate (%) Monochoria vaginalis” value in test [3] and in test [7] was 80% in each case. The “Weed suppression rate (%) Echinochloa crus-galli” value in test [4] and in test [8] was 90% each time.

As for `CC(C)N(C(=O)n1cnn(S(=O)(=O)C2CCCCC2)c1=O)c1ccc(C(F)(F)F)cc1Cl` [Compound 11-314], the “Weed suppression rate (%) Lindemia pyxidaria” value in test [1] and in test [5] was 80% in each case. Besides, the “Weed suppression rate (%) Scirpus juncoides” value in test [2] and in test [6] was 90% in each case. The “Weed suppression rate (%) Monochoria vaginalis” value in test [3] and in test [7] was 80% each time. The “Weed suppression rate (%) Echinochloa crus-galli” value in test [4] and in test [8] was 90% each time.

Values taken from patent publication US11076595B2, “1-(n,n-disubstituted carbamoyl) 4-(substituted sulfonyl)triazolin-5-one derivative, 4-(n,n-disubstituted carbamoyl) 1-(substituted sulfonyl)triazolin-5-one derivative, and herbicide containing said derivative as active ingredient” (HOKKO CHEMICAL INDUSTRY CO., LTD., priority 2017, dated 2021).
